Seven compounds from patent US5188937A, “Layered sandwich assay method for chlamydia and materials therefor” (Becton, Dickinson and Company, priority 1991, dated 1993) can be followed below.

As usually defined, the Ki is the equilibrium dissociation constant of an inhibitor or competing ligand from its target. The low end stands for tighter binding, the high end for weaker binding.

For the test, the target named is T1, Rabbit Liver Esterase (E.C. 3.1.1.1) (Oryctolagus cuniculus, UniProt P12337).
T1 construct: from tissue; host or cells: rabbit liver
T1 sequence (P12337 19-565): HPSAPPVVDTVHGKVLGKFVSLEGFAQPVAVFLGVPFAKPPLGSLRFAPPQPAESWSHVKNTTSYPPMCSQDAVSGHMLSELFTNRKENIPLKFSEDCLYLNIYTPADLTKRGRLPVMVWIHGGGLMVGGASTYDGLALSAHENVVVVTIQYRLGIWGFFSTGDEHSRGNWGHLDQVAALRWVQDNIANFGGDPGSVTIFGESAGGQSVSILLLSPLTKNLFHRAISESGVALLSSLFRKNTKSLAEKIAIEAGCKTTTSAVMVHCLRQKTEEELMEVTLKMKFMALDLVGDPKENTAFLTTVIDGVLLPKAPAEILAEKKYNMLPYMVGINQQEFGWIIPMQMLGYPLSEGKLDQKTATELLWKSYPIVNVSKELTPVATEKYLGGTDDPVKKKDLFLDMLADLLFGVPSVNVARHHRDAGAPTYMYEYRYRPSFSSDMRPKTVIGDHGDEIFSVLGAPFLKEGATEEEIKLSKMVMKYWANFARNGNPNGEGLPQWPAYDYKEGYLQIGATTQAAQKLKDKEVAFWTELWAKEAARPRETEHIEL
The test can be described thus: Inhibition constants, esterase hydrolysis of o-nitrophenyl butyrate followed spectrophotometrically. Type of test: biochemical. As to conditions: RLE; 50 mM Tris pH=8.0; enzyme and inhibitor incubated at ambient temperature for 20 minutes. As for the experimental part: Inhibition constants were measured in 50 mM Tris pH=8.0. Enzyme and inhibitor were incubated at ambient temperature for 20 minutes. Substrate for the enzyme was then added and the rate of hydrolysis was followed spectrophotometrically. The substrate for PLE and RLE was o-nitro-phenylbutrate and for AChE was acetyl thiocholine and Ellman's reagent.
Compound `O=C(Cc1ccc(O)cc1)C(F)(F)F` [1,1,1-trifluoro-3-(4-hydroxyphenyl)propanone] showed a Ki of 2000 nM.

In turn, `O=C(CCc1ccc(O)cc1)C(F)(F)F` [1,1,1-trifluoro-4-(4-hydroxyphenyl)-2-butanone] registered a Ki of 20 nM. This Ki lies about 100-fold lower than the previous one.

Regarding `O=C(CCCc1ccc(O)cc1)C(F)(F)F` [1,1,1-trifluoro-5-(4-hydroxyphenyl)-2-pentanone], affinity was put at a Ki of 10 nM. This Ki is about 2-fold lower than that of the compound before.

`O=C(CCc1cccc(O)c1)C(F)(F)F` [1,1,1-trifluoro-4-(3-hydroxyphenyl)-2-butanone]: the affinity, expressed as Ki, was 100 nM. Against the preceding compound, the Ki is about 10-fold higher.

For `O=C(CCCc1cccc(O)c1)C(F)(F)F` [1,1,1-trifluoro-5-(3-hydroxyphenyl)-2-pentanone], the Ki is 170 nM.

`O=C(CCc1ccc(O)cc1)C(F)(F)C(F)(F)F` [1,1,1,2,2-pentafluoro-5-(4-hydroxyphenyl)-3-pentanone] had an inhibition constant (Ki) of 800 nM.

Take `O=C(CCCCc1ccc(O)cc1)C(F)(F)F` [1,1,1-trifluoro-6-(4-hydroxyphenyl)-2-hexanone]: the Ki was 20 nM.
